Measured values reported in patent US4897409A, “5-aminoethyloxazolidin-2-one derivatives” (Delalande S.A., priority 1986, dated 1990).

Columns and labels:
[1] = molecular target: T1, MAO-A of the brain of a rat (Rattus norvegicus, UniProt P21396); experiment: in vitro inhibition of MAO-A, total rat brain homogenate; assay type: biochemical; conditions: preincubation of 60', 1 g of tissue/16 ml phosphate buffer pH 7.4, substrate [14C]5-hydroxytryptamine 480 μM, read-out: IC 50 (A), MAO-A
T1 construct: total rat brain homogenate, with 1 g of tissue/16 ml of phosphate buffer; from tissue; host or cells: rat brain, total homogenate
T1 sequence (P21396 1-526): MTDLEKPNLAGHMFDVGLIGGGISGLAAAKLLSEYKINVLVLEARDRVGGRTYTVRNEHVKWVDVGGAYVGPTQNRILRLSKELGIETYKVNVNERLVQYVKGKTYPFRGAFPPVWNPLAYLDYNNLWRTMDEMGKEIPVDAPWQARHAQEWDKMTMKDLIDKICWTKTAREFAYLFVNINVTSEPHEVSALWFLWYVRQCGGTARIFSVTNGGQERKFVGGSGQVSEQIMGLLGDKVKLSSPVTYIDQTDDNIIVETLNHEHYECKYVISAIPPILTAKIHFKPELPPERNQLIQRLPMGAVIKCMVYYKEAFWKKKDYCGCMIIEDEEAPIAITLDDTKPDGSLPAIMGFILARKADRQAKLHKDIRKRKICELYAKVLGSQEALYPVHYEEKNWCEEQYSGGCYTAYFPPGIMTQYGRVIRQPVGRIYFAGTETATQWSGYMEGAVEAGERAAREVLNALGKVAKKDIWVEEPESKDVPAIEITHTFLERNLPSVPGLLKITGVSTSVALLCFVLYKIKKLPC
Method: (§1) This activity has been given prominence by the implementation of the protocol described by P. DOSTERT et al. in J. Pharm. Parmacol., 1983, 35, 161-165; this protocol is based on enzymatic tests carried out with or without preincubation in particular for 60 minutes and it allows measurement in vitro of the inhibiting effect with regard to the MAO-A and the MAO-B of the brain of a rat.
(§2) In Table 4 below are shown the inhibiting concentrations 50 (IC 50) for the A and B forms of MAO, obtained for a number of compounds (I) according to the invention following the above protocol applied to a total rat brain homogenate, with 1 g of tissue/16 ml of phosphate buffer of pH 7.4.
(§3) Substrate concentrations: [^14 C]5hydroxytryptamine = 480 μM,
(§4) [^14 C]phenylethylamine = 12 μM for the study of the inhibition o

[2] = molecular target: T2, MAO-B of the brain of a rat (Rattus norvegicus, UniProt P19643); experiment: in vitro inhibition of MAO-B, total rat brain homogenate; assay type: biochemical; conditions: preincubation of 60'; for ratio IC 50 (A) / IC 50 (B) (head is drawing 22): selectivity MAO-B over MAO-A, 60 min; for IC50: total rat brain homogenate, 1 g of tissue/16 ml phosphate buffer pH 7.4, substrate [14C]phenylethylamine 12 μM, read-out: IC 50 (B), MAO-B
T2 construct: total rat brain homogenate, with 1 g of tissue/16 ml of phosphate buffer; from tissue; host or cells: rat brain, total homogenate
T2 sequence (P19643 1-520): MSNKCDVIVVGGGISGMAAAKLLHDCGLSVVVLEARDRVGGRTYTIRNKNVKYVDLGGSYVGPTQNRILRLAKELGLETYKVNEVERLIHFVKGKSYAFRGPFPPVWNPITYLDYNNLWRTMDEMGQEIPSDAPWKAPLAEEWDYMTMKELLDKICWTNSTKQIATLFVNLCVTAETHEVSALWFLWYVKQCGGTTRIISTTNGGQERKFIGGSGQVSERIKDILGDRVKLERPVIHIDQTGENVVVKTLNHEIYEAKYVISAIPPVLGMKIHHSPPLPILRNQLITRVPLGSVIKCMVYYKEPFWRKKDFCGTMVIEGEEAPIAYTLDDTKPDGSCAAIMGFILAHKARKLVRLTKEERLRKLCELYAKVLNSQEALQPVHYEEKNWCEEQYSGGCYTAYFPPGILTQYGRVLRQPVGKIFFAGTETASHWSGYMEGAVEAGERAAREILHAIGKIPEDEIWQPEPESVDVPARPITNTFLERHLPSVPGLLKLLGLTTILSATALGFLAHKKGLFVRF
Method: as §1, §2, §3, §4

| Compound | IC50 [1] [µM] | ratio IC 50 (A) / IC 50 (B) (head is drawing 22) [2] | IC50 [2] [µM] |
| --- | --- | --- | --- |
| C[C@H]([C@H]1CN(c2ccc(OCc3cccc(Cl)c3)cc2)C(=O)O1)N(C)C (relative stereo) [compound 340748] | 300 | > 15 | 20 |
| CN[C@@H](C)[C@H]1CN(c2ccc(OCc3cccc(Cl)c3)cc2)C(=O)O1 [compound 340271] | 7.43 | 95 | 0.078 |
| C[C@@H]([C@H]1CN(c2ccc(OCc3cccc(Cl)c3)cc2)C(=O)O1)N(C)C (relative stereo) [compound 340742] | > 1000 | > 6250 | 0.16 |
| C[C@H](N)[C@@H]1CN(c2ccc(OCc3cccc(Cl)c3)cc2)C(=O)O1 [compound 340366] | > 100 | > 61 | 1.64 |
| C[C@@H]([C@H]1CN(c2ccc(OCc3cccc(Cl)c3)cc2)C(=O)O1)N(C)C [compound 200562, erythro stereoisomer (-) (R, S) of 3-[4-(3-chlorobenzyloxy)phenyl] 5-(1-dimethylaminoethyl) oxazolidin-2-one] | > 100 | > 1887 | 0.053 |
| COc1cccc(COc2ccc(N3C[C@H]([C@H](C)N(C)C)OC3=O)cc2)c1 (relative stereo) [compound 340743] | 1000 | 2500 | 0.4 |
| COc1cccc(COc2ccc(N3C[C@H]([C@@H](C)N(C)C)OC3=O)cc2)c1 (relative stereo) [compound 340749] | > 30 | > 10 | 300 |
| C[C@@H](N)[C@H]1CN(c2ccc(OCc3cccc(Cl)c3)cc2)C(=O)O1 [compound 340321] | > 100 | > 19 | 5.34 |
| C[C@H]([C@@H]1CN(c2ccc(OCc3cccc(Cl)c3)cc2)C(=O)O1)N(C)C [compound 340746] | > 1000 | > 625 | 1.6 |
| CN[C@H](C)[C@H]1CN(c2ccc(OCc3cccc(Cl)c3)cc2)C(=O)O1 [compound 340276] | 148 | 110 | 1.35 |
| CN[C@@H](C)[C@@H]1CN(c2ccc(OCc3cccc(Cl)c3)cc2)C(=O)O1 [compound 340333] | > 100 | > 78 | 1.28 |
| CN[C@H](C)[C@@H]1CN(c2ccc(OCc3cccc(Cl)c3)cc2)C(=O)O1 [compound 340179] | 18.3 | 16 | 1.16 |
| COc1cccc(COc2ccc(N3C[C@@H]([C@@H](C)N(C)C)OC3=O)cc2)c1 [compound 340747] | > 1000 | > 67 | 15 |
| C[C@H](N)[C@H]1CN(c2ccc(OCc3cccc(Cl)c3)cc2)C(=O)O1 (relative stereo) [compound 340750] | 210 | 553 | 0.38 |
| COc1cccc(COc2ccc(N3C[C@H]([C@H](C)N(C)C)OC3=O)cc2)c1 [compound 340744] | > 1000 | > 4000 | 0.25 |
| CN[C@@H](C)[C@H]1CN(c2ccc(OCc3cccc(Cl)c3)cc2)C(=O)O1 (relative stereo) [compound 340745] | 15 | 300 | 0.05 |
